Measurements from PubChem BioAssay AID330 (DTP/NCI, 2004).
Several values for one entry are separate records, joined by “and”; a condition that tells them apart may be missing. Identical values can stand only once. Toxic doses and inconclusive results are not listed. How the source made its calls: active means survival T/C of 150% or more; inactive means T/C below 125% in these data. Peptide text beside a SMILES is read from it.

Test system: P388 leukemia ip, CD2F1 mice, survival T/C
Assay: NCI In Vivo Anticancer Drug Screen. Data for tumor model P388 Leukemia (intraperitoneal) in CD2F1 (CDF1) mice
Conditions: endpoint: median survival time, higher = longer survival
Outline: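 Mice carrying the transplanted tumor received test compound or vehicle. Survival was recorded in each group, and the value is the treated-group measurement divided by that of the vehicle-treated control group.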

[1] = dose: 50.0 mg/kg/injection, schedule: Q01DX009 (ip), vehicle: saline
[2] = dose: 100.0 mg/kg/injection, schedule: Q01DX009 (ip), vehicle: saline
[3] = dose: 50.0 mg/kg/injection, schedule: Q01DX005 (ip), vehicle: Klucel (hydroxypropylcellulose) (HPC)
[4] = dose: 100.0 mg/kg/injection, schedule: Q01DX005 (ip), vehicle: Klucel (hydroxypropylcellulose) (HPC)
[5] = dose: 200.0 mg/kg/injection, schedule: Q01DX005 (ip), vehicle: Klucel (hydroxypropylcellulose) (HPC)
[6] = dose: 50.0 mg/kg/injection, schedule: Q01DX005 (ip), vehicle: saline with Tween-80
[7] = dose: 100.0 mg/kg/injection, schedule: Q01DX005 (ip), vehicle: saline with Tween-80
[8] = dose: 200.0 mg/kg/injection, schedule: Q01DX005 (ip), vehicle: saline with Tween-80

Measured: T/C

CCCCCCCCCCCCCCCCN(O)C(=O)c1cnc[nH]1
inactive: dose: 100.0 mg/kg/injection, schedule: Q04DX003 (ip), vehicle: Klucel (hydroxypropylcellulose) (HPC) 99 % of control | dose: 200.0 mg/kg/injection, schedule: Q04DX003 (ip), vehicle: Klucel (hydroxypropylcellulose) (HPC) 101 % of control | dose: 400.0 mg/kg/injection, schedule: Q04DX003 (ip), vehicle: Klucel (hydroxypropylcellulose) (HPC) 97 % of control

CC(=O)SCN1CCCCC1
inactive: dose: 12.5 mg/kg/injection, schedule: Q01DX009 (ip), vehicle: saline 108 % of control | dose: 25.0 mg/kg/injection, schedule: Q01DX009 (ip), vehicle: saline 108 % of control and 112 % of control | dose: 25.0 mg/kg/injection, schedule: Q04DX002 (ip), vehicle: saline 110 % of control | [1] 102 % of control and 118 % of control | dose: 50.0 mg/kg/injection, schedule: Q04DX002 (ip), vehicle: saline 112 % of control | [2] 108 % of control | dose: 100.0 mg/kg/injection, schedule: Q04DX002 (ip), vehicle: saline 114 % of control and 116 % of control

COCCN=NNc1ccc(C#N)cc1
inactive: dose: 12.5 mg/kg/injection, schedule: Q01DX009 (ip), vehicle: distilled water + Tween-80 100 % of control | dose: 25.0 mg/kg/injection, schedule: Q01DX009 (ip), vehicle: distilled water + Tween-80 105 % of control | dose: 50.0 mg/kg/injection, schedule: Q01DX009 (ip), vehicle: distilled water + Tween-80 101 % of control | dose: 100.0 mg/kg/injection, schedule: Q01DX009 (ip), vehicle: distilled water + Tween-80 97 % of control

O=C1NC(O)c2cc(Br)ccc2O1 (centres undefined)
inactive: [3] 100 % of control | [4] 104 % of control | [5] 106 % of control

COc1ccc2c(C)c[nH]c2c1
inactive: dose: 100.0 mg/kg/injection, schedule: Q01DX001 (ip), vehicle: saline with Tween-80 100 % of control | dose: 200.0 mg/kg/injection, schedule: Q01DX001 (ip), vehicle: saline with Tween-80 118 % of control | dose: 400.0 mg/kg/injection, schedule: Q01DX001 (ip), vehicle: saline with Tween-80 100 % of control

Oc1cc(O)c2c(c1)Oc1cc(O)cc(O)c1C2
inactive: dose: 25.0 mg/kg/injection, schedule: Q04DX003 (ip), vehicle: saline with Tween-80 100 % of control | [6] 106 % of control | dose: 50.0 mg/kg/injection, schedule: Q04DX003 (ip), vehicle: saline with Tween-80 98 % of control | [7] 109 % of control | dose: 100.0 mg/kg/injection, schedule: Q04DX003 (ip), vehicle: saline with Tween-80 97 % of control | [8] 115 % of control

COC(=O)C(N)CCCCNc1ccc2c(cc1=O)C(NC(C)=O)CCc1cc(OC)c(OC)c(OC)c1-2 (centres undefined)
inactive: dose: 25.0 mg/kg/injection, schedule: Q01DX009 (ip), vehicle: saline with Tween-80 119 % of control | dose: 53.0 mg/kg/injection, schedule: Q01DX009 (ip), vehicle: saline 117 % of control | dose: 80.0 mg/kg/injection, schedule: Q01DX009 (ip), vehicle: saline 117 % of control
active: dose: 270.0 mg/kg/injection, schedule: Q01DX009 (ip), vehicle: saline 150 % of control

COCCC(=NC(C)(C)C)Nc1c(Cl)cccc1Cl
inactive: [1] 110 % of control | [2] 108 % of control

CC(C)C(NC(=O)C(N)CCCN=C(N)N)C(=O)O (stereo not drawn) (H-Arg-Val-OH; configuration not given here)
inactive: [6] 91 % of control | [7] 100 % of control | [8] 100 % of control

O=c1cc(-c2ccccc2)nc2cc(-c3ccco3)[nH]n12
inactive: dose: 60.0 mg/kg/injection, schedule: Q01DX005 (ip), vehicle: saline with Tween-80 102 % of control | dose: 120.0 mg/kg/injection, schedule: Q01DX005 (ip), vehicle: saline with Tween-80 107 % of control | dose: 240.0 mg/kg/injection, schedule: Q01DX005 (ip), vehicle: saline with Tween-80 111 % of control

Nc1cncc2nnnn12
inactive: dose: 60.0 mg/kg/injection, schedule: Q01DX005 (ip), vehicle: Klucel (hydroxypropylcellulose) (HPC) 104 % of control | dose: 120.0 mg/kg/injection, schedule: Q01DX005 (ip), vehicle: Klucel (hydroxypropylcellulose) (HPC) 104 % of control | dose: 240.0 mg/kg/injection, schedule: Q01DX005 (ip), vehicle: Klucel (hydroxypropylcellulose) (HPC) 113 % of control

C[C@]12CC[C@H]3[C@@H](C[C@H]4OC[C@@]35CC[C@H](O)C[C@]45Br)[C@@H]1CC[C@@H]2O
inactive: [3] 97 % of control | [4] 97 % of control | [5] 96 % of control
